Source: patent US10266567B2, “Peptides and compositions comprising same and uses thereof in the treatment of diseases” (Ariel-University Research and Development Company Ltd., priority 2015, dated 2019)
Entries after “also recorded” stand apart in the source; their conditions may differ. Bridge positions count the residues as written; N and C are the ends. Ends that are not written are not given here.

How the values were obtained:
B16-F10 melanoma cells = assay: Metastatic melanoma mice model using B16F10 cells; type: in vivo, C57BL/6 mice
Procedure: Metastatic melanoma mice model using B16F10 cells. Murine B16F10 cells grown in RPMI were harvested by trypsinization and washed with PBS. The cells were counted and resuspended in PBS to final concentrations of 1.0×10^5 cells/mL and were maintained at 4° C. for immediate i.v inoculation into the tail vein of C57BL6 male mice (Harlan Labs). Next day, following tumor cell inoculation, these animals received i.p. injection of ALOS peptide or saline. Injections were performed daily throughout the working week. Mice were weighed daily on the day of injection.
For analysis of the peptides' effect on melanoma nodule formation all mice were sacrificed 18 days following the i.v. injection. Organs were dissected analyzed visually. The lungs of sacrificed mice were rinsed in saline and fixed with Bouin's solution. The total number of visible nodules on the lung surface per animal was counted.
For analysis of the peptides' effect on survival of melanoma cell-inoculated mice, animals were observed several times a week for signs of lethargy such as weight loss, hunched position and epilepsy. In order to lessen suffering, when these symptoms occurred, mice were euthanized with cervical dislocation after CO2 anesthesia. Survival time was recorded and long-term survivors were defined as animals surviving longer than 3 times the median survival of non-treated animals.
ALOS3 and ALOS4 block melanoma growth in metastatic melanoma mice model: An important clinical problem of malignant tumors is that lethality is mostly attributed to metastasis of the primary neoplastic cells. Complete eradication of the primary malignant cells is usually limited, due to location of the tumor, spread to distant organs and severe side effects caused by treatment. The effects of ALOS 3 and 4 on artificial metastasis, using highly metastatic melanoma B16-F10 cells was studied. 5×10^4 cells of B16-F10/0.2 ml/mouse were injected into the tail vein of 8 weeks old C57BL/6 mice. […] 18 days later the mice were sacrificed, lungs were dissected and the total number of visible nodules on the lung surface was counted. […]

[1] = Elevated Plus Maze (EPM) test in metastatic melanoma mice; type: in vivo; conditions: 0.3 mg/kg chronic, vs control, p<0.01
Procedure: The EPM apparatus comprises two closed (10 cm×45 cm×40 cm) and two open (10 cm×45 cm) arms that extend from a common central platform (10 cm×10 cm). The black apparatus is elevated to a height of 60 cm above floor level. The tests were conducted at the same time of the day (10.00-12.00 h) during the period of illumination in the mice's colony room. For habituation, all animals were placed in the experimental room one hour prior to the test. Each animal was placed at the center of the maze, facing one of the closed arms. Each mouse spent a five minute session in the EPM, during which the number of entries into open and closed arms as well as time spent in the open and closed arms were video scored.

CAPSPSRLC (disulfide 1-9 (inferred)) [ALOS3]
Survival of metastatic melanoma mice (B16-F10 melanoma cells; 0.3 mg/kg daily i.p., 5×10^3 B16-F10 cells i.v., vs saline): significantly increased the survival; also recorded: significantly delayed animals' death
Number of metastatic melanoma sites (visible nodules) in the lungs (B16-F10 melanoma cells; 0.3 mg/kg daily i.p., 5×10^4 B16-F10 cells i.v., day 18): significantly blocked the number of metastatic melanoma sites in the lungs
Animals' weight during treatment course (B16-F10 melanoma cells; metastatic melanoma mice, ALOS vs saline): did not show weight loss
EPM performance (ratio of time spent in open arms to total time), anxiolytic effect [1]: significantly increased the performance of the mice; also recorded: exerted anxiolytic effect
